Laboratory results: ChEMBL document CHEMBL1134002, “N-Aminoindoline derivatives as inhibitors of 5-lipoxygenase” (Bioorg Med Chem Lett, 2001)

How the values were obtained:
[1] = target: T1, Polyunsaturated fatty acid 5-lipoxygenase (Rattus norvegicus) (UniProt P12527); assay: In vitro percent inhibition against 5-lipoxygenase in RBL-1 cells at 10 uM concentration; format: cell-based
T1 sequence (whole entry): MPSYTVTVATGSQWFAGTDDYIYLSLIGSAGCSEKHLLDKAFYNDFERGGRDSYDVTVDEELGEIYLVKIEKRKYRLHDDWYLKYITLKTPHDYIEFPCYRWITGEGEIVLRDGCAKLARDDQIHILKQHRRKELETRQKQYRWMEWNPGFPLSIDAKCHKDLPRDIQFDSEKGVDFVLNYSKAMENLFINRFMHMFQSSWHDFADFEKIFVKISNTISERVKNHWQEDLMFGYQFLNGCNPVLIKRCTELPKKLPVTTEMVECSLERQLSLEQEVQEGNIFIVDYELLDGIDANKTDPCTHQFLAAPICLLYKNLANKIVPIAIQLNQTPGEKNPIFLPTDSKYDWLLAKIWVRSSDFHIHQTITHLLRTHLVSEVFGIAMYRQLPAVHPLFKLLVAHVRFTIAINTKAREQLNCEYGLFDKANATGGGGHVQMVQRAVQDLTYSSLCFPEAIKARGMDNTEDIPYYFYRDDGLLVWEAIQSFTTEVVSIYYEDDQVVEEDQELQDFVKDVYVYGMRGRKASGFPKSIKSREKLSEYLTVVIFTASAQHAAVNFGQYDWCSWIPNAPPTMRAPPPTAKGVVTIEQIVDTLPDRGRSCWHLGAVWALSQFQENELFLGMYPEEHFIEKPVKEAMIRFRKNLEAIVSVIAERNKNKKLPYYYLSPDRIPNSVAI

[2] = target: T2, Polyunsaturated fatty acid 5-lipoxygenase (Rattus norvegicus, UniProt P12527); assay: In vitro inhibitory concentration against 5-lipoxygenase in RBL-1 cells; format: cell-based
T2 sequence (P12527 whole entry): T1 sequence (whole entry)

[3] = target: T1, Polyunsaturated fatty acid 5-lipoxygenase (Rattus norvegicus); conditions: RBL-1; 10 uM
[4] = target: T1, Polyunsaturated fatty acid 5-lipoxygenase (Rattus norvegicus); assay: In vitro percent inhibition against 5-lipoxygenase in RBL-1 cells at 1 uM concentration; format: cell-based

SMILES	inhibition [1] [%]	also measured
O=C(O)CCC/C=C/c1ccc(C(=O)NN2CCc3ccccc32)cc1	18	–
O=C(NN1CCc2ccccc21)c1ccccc1	15	–
COc1ccc2c(c1)CCN2NC(=O)c1ccccc1	20	–
CN(NC(=O)c1ccccc1)c1ccccc1	28	–
CN(NS(=O)(=O)c1ccccc1)c1ccccc1	53	–
O=C(NN1CCc2cc(O)ccc21)c1ccccc1	80	IC50 [2]: 3.47 µM
CC(Cc1ccc(O)c(O)c1)C(C)Cc1ccc(O)c(O)c1 (centres undefined)	–	inhibition [3]: 73%
CCCCCCCCCCNC(=O)CCC/C=C/c1ccc(C(=O)NN2CCc3ccccc32)cc1	–	inhibition [4]: 57%
